Test results published in patent US20230151434A1, “REAWAKENING OF DORMANT TUMOR CELLS BY MODIFIED LIPIDS DERIVED FROM STRESS ACTIVATED NEUTROPHILS” (The Wistar Institute of Anatomy and Biology, priority 2020, published 2023).
Where two headings read alike, the source gives them in different places.

How the values were obtained:
[1] = test system: KPr^p53A cells; assay: In vitro co-culture of dormant tumor cells with PMN (count of GFP+ cells); type: cell-based, mouse; details: for reactivation/proliferation of KPr^p53A cells cultured with PMN plus supplement: supplement added with PMN, LPS 0.5 to 2 μg/ml
Procedure: (§1) The KPr cell line (16) was maintained in RPMI 1640 medium (Corning) and 10% FBS (Gibco). Treatment of KPr cells with 250 nM 4-hydroxytamoxifen (4-OHT, Sigma-Aldrich) induced p53 expression. p53-induced cells (KPr^p53) were stained with CellTrace dye for 20 min at 37° C. according to the manufacturer's instructions (Life Technologies) and seeded at 8500 cells/cm^2 in culture in a T175 tissue culture-treated flask (Gibco). After 7 days, cells were detached and sorted based on the CellTrace dye intensity as proliferating (KPr^p53P, with lower CellTrace) and arrested cells (KPr^p53A, with higher-intensity CellTrace; see FIG. 1A for representative image). LL2 cells were seeded at 1000 cells/cm2 and treated for 3 days with 2.5 μM cisplatin (Selleckchem). After that, cells were stained with CellTrace and sorted as described above. OVCAR3 cell senescence was induced by treating 5×10^4 cells/cm2 with 0.5 μM cisplatin for 72 hours. After that time, cells were stained with CellTrace and sorted. A549 senescence was induced by 72-hour treatment with 4 μM cisplatin and cells were sorted after staining with CellTrace. Time points for sorting were chosen as the best to observe separation between arrested and proliferating cells. Cells were sorted on Astrios (Beckman Coulter) or Melody (Becton Dickinson) fluorescence-activated cell sorters.
(§2) Arrested tumor cells were plated at 100 cells/cm^2 in a 48-well tissue culture-treated plate (Costar) for coculture experiments. After 24 hours, PMN-MDSC or PMN were added at indicated ratios. Cocultures were maintained for 48 hours in RPMI 1640+10% FBS in the presence of mouse recombinant GM-CSF (10 ng/ml; Rocky Hill) to ensure neutrophil viability. All control conditions were in the presence of media with GM-CSF. All indicated supplements (NE, S100A8/A9, BGJ398, ICI 118-551, IL-2, MPO inhibitor, LPS, lipids, PMA, and thapsigargin 1 μM) were added to culture at the same time as PMN and maintained for 48 hours. After that, media were removed and replaced by fresh media without GM-CSF. After 1 week, GFP^+ cells in wells were counted via an inverted microscope. When lipid extracts were used, lipids were added to dormant cells in culture at 1 to 0.05 or 0.01 nmol as indicated in each experiment.

[2] = test system: PMN; assay: S100A8/A9 release by PMN measured by ELISA; type: cell-based, mouse
Procedure: PMN or PMN-MDSC were isolated from spleen of tumor-free mice or LLC tumor-bearing mice, respectively. A total of 5×10^5 LLC cells were injected into the right flank of mice, and spleens were harvested when tumors reached 200 mm^2. Spleens were mechanically dissociated. Red blood cells were lysed with ACK buffer cells. Splenocytes were stained with mouse biotin-conjugated Ly6G antibody (Miltenyi Biotec) followed by biotin microbeads. Ly6G+ cells were purified by magnetic separation with MACS column for magnetic cell isolation, according to the manufacturer's instructions (Miltenyi Biotec).
One hundred microliters of mouse peripheral blood was collected from facial vein. NE was measured by a mouse NE ELISA Kit (Novus Biologicals). S100A8/A9 was measured by Mouse S100A8/S100A9 Heterodimer DuoSet ELISA (R&D Systems). S100A8/A9 concentrations in human serum samples were determined by using a double-sandwich ELISA system as previously described (64), which is different from commercial ELISA kits. Human NE was measured using an ELISA kit (Abnova).

[3] = test system: A549^cisA and OVCAR3^cisA cells; assay: In vitro co-culture of chemotherapy-arrested human tumor cells with human PMN; type: cell-based; details: A549^cisA, OVCAR3^cisA
Procedure: as §1, §2

[4] = PMN treated with stress hormones or LPS

C/C=C(/C)C(=O)O[C@H]1C(C)=C2[C@H]([C@@H]1OC(=O)CCCCCCC)[C@@](C)(OC(C)=O)C[C@H](OC(=O)CCC)[C@@]1(O)[C@H]2OC(=O)[C@@]1(C)O [thapsigargin]
reactivation/proliferation of KPr^p53A cells cultured with PMN plus supplement [1]: did not induce their ability to reactivate dormant KPr^p53A cells

TNF a
reactivation/proliferation of KPr^p53A cells cultured with PMN plus supplement [1]: did not induce their ability to reactivate dormant KPr^p53A cells

PE (18:0p/20:4) [Untreated PE]
proliferation of KPr^p53A cells cultured with lipids ([1]; lipids added to dormant cells, no PMN): did not activate proliferation of KPr^p53A cells

IL-6: proinflammatory cytokine
reactivation/proliferation of KPr^p53A cells cultured with PMN plus supplement [1]: did not induce their ability to reactivate dormant KPr^p53A cells

CNC[C@H](O)c1ccc(O)c(O)c1 [epinephrine]
S100A8/A9 release by PMN [2]: caused rapid release of S100A8/A9 proteins

CCCCCCCCCCCCCC(=O)O[C@@H]1[C@@H](C)[C@@]2(O)[C@@H](C=C(CO)C[C@]3(O)C(=O)C(C)=C[C@@H]23)[C@@H]2C(C)(C)[C@]12OC(C)=O [PMA, phorbol 12-myristate 13-acetate]
reactivation/proliferation of KPr^p53A cells cultured with PMN plus supplement [1]: did not induce their ability to reactivate dormant KPr^p53A cells

C[C@]12CCC(=O)C=C1CC[C@@H]1[C@@H]2[C@@H](O)C[C@@]2(C)[C@H]1CC[C@]2(O)C(=O)CO [cortisol]
S100A8/A9 release by PMN [2, 4]: caused rapid release of S100A8/A9 proteins

NCCc1c[nH]c2ccc(O)cc12 [serotonin]
S100A8/A9 release by PMN [2, 4]: caused rapid release of S100A8/A9 proteins

B1: human S100A8/A9: human recombinant S100A8/A9 (protein, UniProt P05109 1-93; P06702 1-114, looked up)
Protein S100-A8: MLTELEKALNSIIDVYHKYSLIKGNFHAVYRDDLKKLLETECPQYIRKKGADVWFKELDINTDGAVNFQEFLILVIKMGVAAHKKSHEESHKE
Protein S100-A9: MTCKMSQLERNIETIINTFHQYSVKLGHPDTLNQGEFKELVRKDLQNFLKKENKNEKVIEHIMEDLDTNADKQLSFEEFIMLMARLTWASHEKMHEGDEGPGHHHKPGLGEGTP
reactivation of arrested human tumor cells cultured with human PMN plus supplement [3]: reactivation of A549^cisA and OVCAR3^cisA cells

B2: IL-10: proinflammatory cytokine as printed (protein, UniProt P22301 19-178, looked up)
Interleukin-10: SPGQGTQSENSCTHFPGNLPNMLRDLRDAFSRVKTFFQMKDQLDNLLLKESLLEDFKGYLGCQALSEMIQFYLEEVMPQAENQDPDIKAHVNSLGENLKTLRLRLRRCHRFLPCENKSKAVEQVKNAFNKLQEKGIYKAMSEFDIFINYIEAYMTMKIRN
reactivation/proliferation of KPr^p53A cells cultured with PMN plus supplement [1]: did not induce their ability to reactivate dormant KPr^p53A cells
